The values below come from patent US12606520B2, “Calpain-2 inhibitor compounds and methods of treatment” (WESTERN UNIVERSITY OF HEALTH SCIENCES, priority 2020, dated 2026).

The target of assay [1] is T1, recombinant human calpain-2 (hcalpain-2) (Homo sapiens, UniProt P17655).
T1 sequence (P17655 1-700): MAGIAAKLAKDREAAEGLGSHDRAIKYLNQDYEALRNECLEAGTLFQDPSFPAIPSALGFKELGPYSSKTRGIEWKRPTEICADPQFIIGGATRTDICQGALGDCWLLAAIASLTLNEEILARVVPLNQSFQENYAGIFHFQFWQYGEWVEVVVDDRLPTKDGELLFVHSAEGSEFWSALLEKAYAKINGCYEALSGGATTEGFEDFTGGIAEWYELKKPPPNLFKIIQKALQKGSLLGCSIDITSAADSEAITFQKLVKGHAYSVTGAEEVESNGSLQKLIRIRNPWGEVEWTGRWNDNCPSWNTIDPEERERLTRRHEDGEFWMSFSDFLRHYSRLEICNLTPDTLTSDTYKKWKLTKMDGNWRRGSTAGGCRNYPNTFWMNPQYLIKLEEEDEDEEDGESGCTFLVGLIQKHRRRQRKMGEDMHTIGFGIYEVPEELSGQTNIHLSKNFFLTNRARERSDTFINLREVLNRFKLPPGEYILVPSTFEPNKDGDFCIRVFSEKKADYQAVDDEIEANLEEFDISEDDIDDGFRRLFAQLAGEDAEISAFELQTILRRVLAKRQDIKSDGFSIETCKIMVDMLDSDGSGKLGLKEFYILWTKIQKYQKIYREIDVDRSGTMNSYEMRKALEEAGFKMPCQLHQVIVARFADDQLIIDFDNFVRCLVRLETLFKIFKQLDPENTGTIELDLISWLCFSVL
T1 sequence (P04632 1-268 partner): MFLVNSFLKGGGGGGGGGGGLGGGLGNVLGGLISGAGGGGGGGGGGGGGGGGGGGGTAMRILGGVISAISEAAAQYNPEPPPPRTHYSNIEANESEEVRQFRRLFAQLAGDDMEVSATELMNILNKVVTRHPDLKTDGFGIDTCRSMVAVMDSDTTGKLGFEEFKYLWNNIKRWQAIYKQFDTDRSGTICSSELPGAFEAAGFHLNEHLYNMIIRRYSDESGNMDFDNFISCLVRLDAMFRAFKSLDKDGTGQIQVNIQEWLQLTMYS
Put plainly: Inhibition of recombinant human calpain-2. It counts as biochemical. On the procedure:
(§1) Various concentrations of NA112 in the liposomal formulation were incubated with human calpain-1 (purified from erythrocytes, ecalpain-1) or a recombinant human calpain-2 (hcalpain-2) and calpain activity assayed as in FIG. 1. IC50 were determined and transformed into Ki values (FIG. 10A, 10B). Values previously obtained with NA112 dissolved in DMSO are shown for comparison (FIG. 10B).
(§2) Cerebellar homogenates from wild-type (WT) or calpain-1 Knock-out (KO) mice were incubated with 20 μM calcium to activate calpain-1 or with 2 mM calcium to activate calpain-2, respectively, and increasing concentrations of NA184.
(§3) Like in NA112, there are 2 chiral centers in NA184. The inhibitory activity of the compounds NA184A (S-S isomer) and NA184B (S-R stereoisomer) against erythrocyte human calpain-1 (ecalpain-1) and recombinant human calpain-2 (hcalpain-2) were determined.

Assay [2] has as its target T2, human calpain-1 (purified from erythrocytes, ecalpain-1) (Homo sapiens, UniProt P07384).
T2 construct: human calpain-1 (purified from erythrocytes, ecalpain-1); from tissue; host or cells: human erythrocytes
T2 sequence (P07384 1-714): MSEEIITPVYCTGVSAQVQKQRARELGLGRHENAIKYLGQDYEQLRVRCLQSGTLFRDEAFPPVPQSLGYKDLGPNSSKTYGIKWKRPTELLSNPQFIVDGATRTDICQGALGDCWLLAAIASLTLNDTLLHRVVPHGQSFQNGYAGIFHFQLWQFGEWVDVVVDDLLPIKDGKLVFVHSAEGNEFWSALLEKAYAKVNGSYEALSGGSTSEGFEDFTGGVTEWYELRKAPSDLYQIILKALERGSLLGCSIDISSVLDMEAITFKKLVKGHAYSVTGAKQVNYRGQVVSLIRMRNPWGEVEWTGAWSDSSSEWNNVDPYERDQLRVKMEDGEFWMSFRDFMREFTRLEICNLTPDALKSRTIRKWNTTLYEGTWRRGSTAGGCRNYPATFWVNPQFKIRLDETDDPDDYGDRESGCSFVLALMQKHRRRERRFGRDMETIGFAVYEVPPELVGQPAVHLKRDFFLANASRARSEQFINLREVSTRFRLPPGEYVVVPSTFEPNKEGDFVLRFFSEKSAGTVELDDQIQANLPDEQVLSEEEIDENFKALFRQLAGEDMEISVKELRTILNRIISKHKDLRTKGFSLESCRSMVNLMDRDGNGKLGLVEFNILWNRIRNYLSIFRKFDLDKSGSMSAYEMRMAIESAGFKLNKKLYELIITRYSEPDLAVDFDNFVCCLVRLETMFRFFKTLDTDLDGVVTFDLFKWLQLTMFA
T2 sequence (P04632 1-268 partner): T1 sequence (P04632 1-268 partner)
Put plainly: Inhibition of human calpain-1 purified from erythrocytes. Type of assay: biochemical. On the procedure:
as §1, §2, §3

Turning to `CCC(NC(=O)[C@H](CC(C)C)NC(=O)NCc1ccccc1)C(=O)C(=O)NCc1cccc(Cl)c1OC` (stereo partly drawn) [NA184, (2S)-2-(3-benzylureido)-N-(1-((3-chloro-2-methoxybenzyl)amino)-1,2-dioxopentan-3-yl)-4-methylpentanamide], the IC50 came out at 85 nM in assay [1] and 543 nM in assay [2]. Also, the Ki in assay [1] was 54 nM.
